According to patent publication US8329678B1, “Antiinflammatory compound” (priority 2011, dated 2012):

Legend:
whole blood phagocytes = assay: Luminol-enhanced chemiluminescence oxidative burst assay, whole blood; assay type: cell-based, human
Excerpt: (§1) Heparinized blood was obtained by vein puncture aseptically from healthy volunteers (25-38 years age). The buffy coat containing PMNs was collected by dextran sedimentation and the cells were isolated after the LSM density gradient centrifugation from the tube base. Cells were washed twice and suspended in Hank's Balance Salt Solution (Ca^2+ and Mg^2+ free) (HBSS^−−), pH 7.4. Neutrophils were purified from RBCs contamination using hypotonic solution. Cells were adjusted to their required concentration using Hank's Balance Salt Solution containing Ca^2+ and Mg^2+ (HBSS++)
(§2) Luminol-enhanced chemiluminescence assay was performed as described by Helfand et al. (17), and Haklar et al. (18) with some modifications. Briefly, 25 μL diluted whole blood (1:200 dilution in sterile HBSS^++) or 25 μL of PMNs (1×10^6) cells were incubated with 25 μL of serially diluted compounds with concentration ranges between 3.2-50 mg/mL. Tests were performed in white 96-well plates, which were incubated at 37° C. for 30 minutes in the thermostated chamber of the luminometer. Opsonized zymosan-A, 25 μL, followed by 25 μL luminol (7×10^−5M) along with HBSS^++ was added to each well to obtain a 100 μL volume/well. […] Chemiluminescence peaks were recorded with the Luminometer. Results were monitored as chemiluminescence relative light units (RLU) with peak and total integral values.

[1] = tested on: isolated polymorphoneutrophils (PMNs); assay: Luminol-enhanced chemiluminescence oxidative burst assay, isolated PMNs; assay type: cell-based, human
Excerpt: as §1, §2

[2] = tested on: human lung cancer cell line (NCI-H460); assay: Sulforhodamine B (SRB) growth inhibition assay; assay type: cell-based; conditions: for TGI (μM), could not be determined: NCI-H460, maximum dose 100 μM
Method: The sulforhodamine B (SRB) protein-staining assay was employed for measurement of in vitro growth inhibition and cytotoxicity (21) The appropriate cell density (cells/well) of NCI-H460 cells (1×10^4) was added in 96-well plates. The cell density used was dependent on the doubling time of the cell line leading to the formation of monolayer. After 24 h incubation, different doses of Compounds 1-3 were added and incubated for further 48 h. This was followed by fixation of cells with ice-cold trichloroacetic acid (50 μl, 50%) at room temperature for 30 min. The plates were carefully washed five times with distilled water, and left for overnight drying in air. Sulforhodamine B dye (100 μl, 0.4% in 1% acetic acid) was introduced in each well and after 30 min residual dye was removed using acetic acid (1%) and air-dried overnight. The bound SRB dye was solubilized in Tris-base solution (100 μl, 10 mM) with gentle shaking on a plate-shaker for 5 min prior to optical density (OD) measurements at 545 nm in a plate reader. Drug concentrations causing growth inhibition (GI50) of 50% cells were calculated from dose response curves and total growth inhibition of Compound 2 was also evaluated.

[3] = tested on: PHA-activated T-cell proliferation; assay: PHA-activated T-cell proliferation assay (3H-thymidine incorporation); assay type: cell-based, human
Method: The T-cell proliferation assay was performed as described by Nielson et al. (19). In this assay, isolated lymphocytes were stimulated by adding the phytohemagglutinin (PHA) in culture. The rate of proliferation and survival was measured by radiolabelled thymidine incorporation method. The lymphocytes were isolated as described by Boyum (20). A 50 μL of cell suspension (10^6/mL) was added to each well of a 96-well round bottom tissue culture plate. 50 μL of PHA was added in each well from the working solution (20 μg/mL) to have final concentration 5 μg/mL. The final volume was adjusted to 200 μL in each well by adding complete RPMI media. The plates were incubated at 37° C. for 72 hours (90% humidity, 5% CO2/air). Methyl-^3H thymidine (Amersham Pharmacia Biotech) 0.5 μCi was added in each well and incubated for further 18 hours. Cells were harvested on a filter mat (Type G-7) using cell harvester (INOTECH IH-280, Switzerland) and the radioactivity (CPM) was measured using a β-scintillation counter (LS 6500, Beckman Coulter, USA). (FIG. 2A)

[4] = tested on: IL-2 production from peripheral blood mononuclear cells; assay: IL-2 cytokine production by PHA-activated PBMC (ELISA); assay type: cell-based, human
Method: IL-2 cytokine was produce from peripheral blood mononuclear cells (PBMC). IL-2 cytokine production by PHA activated cells in the presence or absence of test compounds was studied by ELISA using the human cytokine kit (Diaclone, Besancon Cedex France). Briefly, freshly prepared mononuclear cells (10^5/well) were cultured in 96-well microtiter flat bottom plate in the presence or absence of 5 μg/mL PHA. Four different concentrations (10.33-331.13 μM/mL) of compounds, along with PHA, were used in this assay. The culture plate was incubated at 37° C. for 18 h. Then the supernatant was collected and analyzed for IL-2 cytokine production following kit manufacturer instructions.

`C[C@]12C=CC(=O)C[C@@H]1CC[C@@H]1[C@@H]2CC[C@@]2(C)[C@H]1CC[C@]2(C)O` [Compound 2, 17β-hydroxy-17α-methyl-5α-androst-1-en-3-one] was tested, and the “effect on ROS production, whole blood phagocytes” value (whole blood phagocytes) was “did not result in any significant effect”, the “effect on ROS production, isolated neutrophils” value [1] was “did not result in any significant effect” and the “anticancer activity against NCI-H460” value [2] was “showed anticancer activity”.

`C[C@]12CCC(=O)C[C@@H]1CC[C@@H]1[C@@H]2CC[C@@]2(C)[C@H]1CC[C@]2(C)O` [Compound 3, 17β-hydroxy-17α-methyl-5α-androstan-3-one] was tested, and the “effect on ROS production, whole blood phagocytes” value (whole blood phagocytes) was “did not result in any significant effect”, the “effect on ROS production, isolated neutrophils” value [1] was “did not result in any significant effect” and the “effect on T-cell proliferation” value [3] was “moderate inhibitory activity”. The “effect on IL-2 production” value [4] was “moderate inhibitory activity”, the “anticancer activity against NCI-H460” value [2] was “non-active” and the “growth inhibition of cancer cells at 100 μM” value ([2]; 100 μM) was “not able to inhibit considerable growth”. The “TGI (μM), could not be determined” value [2] was “ND (Values could not be determined indicates <50% inhibition of cell growth at maximum dose (100 μM) tested.)”.

For `C[C@]12C=CC(=O)C=C1CC[C@@H]1[C@@H]2CC[C@@]2(C)[C@H]1CC[C@]2(C)O` [Compound 1, dianabol, reference compound], the “effect on T-cell proliferation” value [3] was “did not show any significant effect”, the “effect on IL-2 production” value [4] was “did not show any significant effect” and the “anticancer activity against NCI-H460” value [2] was “showed anticancer activity”. For the same molecule, the “TGI (μM), could not be determined” value [2] was “ND (Values could not be determined indicates <50% inhibition of cell growth at maximum dose (100 μM) tested.)”.
